Columns and labels:
[1] = tested on: CHOP, GRP78, caspase 4 in U251 glioblastoma cells; test: Western blot of ER stress indicators in U251 cells; format: cell-based, human; conditions: U251, increasing concentrations, 24 hours
Description: U251 glioblastoma cells were cultured in the presence of 1 μM thapsigargin (Tg) or 60 μM DMC for various times, as indicated. Total cell lysates were prepared and analyzed by Western blot with specific antibodies to the ER stress proteins GRP78, CHOP, and caspase 4 (Casp 4). Actin was used as a loading control.
Shown are (A) time kinetics at 50 μM of each drug, and (B) concentration dependence after 15 hours of incubation.
Shown are (FIG. 7A) time kinetics at 50 μM of each drug, and (FIG. 7B), concentration dependence after 15 hours of incubation.
U251 glioblastoma cells were cultured for 24 hours in the presence of increasing concentrations of (A) bortezomib (BZM) or (B) DMC. Total cell lysates were analyzed by Western blot with specific antibodies to ubiquitin, GRP78, CHOP, and caspase 4. Actin was used as a loading control.
Total cell lysates were prepared by lysis of cells with radioimmunoprecipitation assay buffer (28), and protein concentrations were determined using the bicinchoninic acid protein assay reagent (Pierce, Rockford, Ill.). For Western blot analysis, 50 Ag of each sample were processed as described (29). The primary antibodies were purchased from Cell Signaling Technologies (Beverly, Mass.), Cayman Chemical (Ann Arbor, Mich.), or Santa Cruz Biotechnology, Inc. (Santa Cruz, Calif.) and used according to the manufacturer's recommendations. The secondary antibodies were coupled to horseradish peroxidase and detected by chemiluminescence using the SuperSignal West substrate from Pierce. All immunoblots were repeated at least once to confirm the results.
(§1) Total cell lysates were prepared and analyzed by Western blot analysis as described earlier (19). Immunohistochemical analysis of protein expression in tumor tissues was performed with the use of the Vectastain avidin-biotin complex method kit (Vector Laboratories) as described previously (32). The primary antibodies were purchased from Cell Signaling Technology or Santa Cruz Biotechnology, Inc. and used according to the manufacturers' recommendations. All immunoblots and stainings were repeated at least once to confirm the results.

[2] = tested on: LN229 glioblastoma cell line; test: MTT assay, LN229; format: cell-based, human; conditions: Homo sapiens, LN-229, LN229, 48 h, read-out: IC50 (50% inhibition of cell growth)
Description: (§2) For comparison purposes to the known anti-multiple myeloma effects of bortezomib, the RPMI/8226 multiple myeloma cell line was included in (A).
(§3) 3-(4,5-Dimethylthiazol-2-yl)-2,5-diphenyltetrazolium bromide (MTT) assays were performed in 96-well plates with the use of 3.0×10^3 to 8.0×10^3 cells per well as described in detail elsewhere (19).

[3] = tested on: polyubiquitinated proteins in U251 cells; test: Western blot of polyubiquitinated proteins, U251; format: cell-based, human; conditions: U251, increasing concentrations, 24 hours
Description: Total cell lysates were analyzed by Western blot with specific antibodies to ubiquitin, GRP78, CHOP, and caspase 4. Actin was used as a loading control. […] Note that in the caspase 4 blots several non-specific background bands were observed (consistent with similar observations in the literature); the specific bands were identified with the use of various controls (not shown) and comparison to the literature.
as §1

[4] = tested on: CHOP protein in U87 glioblastoma tumor tissue; test: Immunohistochemical staining for CHOP in xenograft tumor tissue; format: in vivo, nude mice; conditions: U87MG xenograft, 1 mg/kg BZM and 7.5 mg/kg DMC individually or in combination, 50 h
Excerpt: In all cases, representative sections are shown.
Immunohistochemical analysis of protein expression in tumor tissues was done with the use of the Vectastain avidin-biotin complex method kit (Vector Laboratories, Burlingame, Calif.) according to the manufacturer's instructions. This procedure uses biotinylated secondary antibodies and a preformed avidin: biotinylated enzyme complex that has been termed the avidin-biotin complex method technique. As the primary antibody, we used anti-CHOP antibody (Santa Cruz Biotechnology) diluted 1:100 in 2% normal goat blocking serum.

[5] = tested on: U87MG glioblastoma cell line; test: MTT assay, U87MG; format: cell-based; conditions: Homo sapiens, U-87 MG, 48 h, read-out: IC50 (50% inhibition of cell growth)
Description: as §2, §3

[6] = tested on: LN229 cells; test: Colony formation assay, LN229; format: cell-based, human; conditions: LN229: 5 nM BZM, 60 μM CXB, 40 μM DMC, alone or combined; 48 hours, colonies two weeks thereafter
Description: Representative sections are shown. (B) Quantitative analysis of combination drug effects. […] Cell viability was determined by trypan blue exclusion assay.
The different small interfering RNAs (siRNA) were synthesized at the microchemical core laboratory of the University of Southern California/Norris Comprehensive Cancer Center; their sequences are described in ref. 32. Transfections of cells with these siRNAs and subsequent analysis of cell survival by colony formation assay have been described in detail elsewhere (32).

[7] = tested on: U87 glioblastoma tumors; test: TUNEL assay of xenograft tumor tissue; conditions: U87MG xenograft, 1 mg/kg BZM and 7.5 mg/kg DMC individually or in combination, 50 h
[8] = tested on: RPMI/8226 multiple myeloma cell line; test: MTT assay, RPMI/8226; format: cell-based; conditions: RPMI/8226, 48 h, not more sensitive than the glioblastoma cell lines
Description: as §2, §3

[9] = tested on: T98G glioblastoma cell line; test: MTT assay, T98G; format: cell-based; conditions: Homo sapiens, 48 h, read-out: IC50 (50% inhibition of cell growth)
Description: as §2, §3

[10] = tested on: U251 glioblastoma cells; test: MTT assay, U251; format: cell-based, human; conditions: Homo sapiens, U-251; U251, 48 h, MTT; read-out: IC50 (50% inhibition of cell growth)
Description: U251 glioblastoma cells were treated with different drugs, and various parameters of cell growth and cell death were comparatively analyzed. As controls, cells remained either non-treated (Co) or were treated with the solvent DMSO alone. (FIG. 8A) Cells were treated with 30 or 50 μM DMC for 48 hours and the effects on cell growth/survival and on cell death were determined by various assays. […] Below the three panels, the expression levels of the ER stress indicators CHOP, GRP78, and caspase 4 at the end of the 48 hour drug treatment is shown, as determined by Western blot analysis with specific antibodies (actin served as a loading control. (FIG. 8B) Cells were treated with various concentrations of different drugs for 48 hours, as indicated, and cell death was measured with the cell death ELISA kit. (FIG. 8C) Cells were treated with DMC or various coxibs and traditional NSAIDs for 48 hours, as indicated, and cell growth and survival was determined with the conventional MTT assay (control, non-treated cells were set at 100%). MTT assays were performed in 96-well plates with the use of 3.0-8.0×10^3 cells per well as described in detail elsewhere (34). In parallel, the expression levels of CHOP and GRP78 protein were determined by Western blot analysis. […]
as §3

CC(C)C[C@H](NC(=O)[C@H](Cc1ccccc1)NC(=O)c1cnccn1)B(O)O [bortezomib]
expression of GRP78 and CHOP [1]: increased expression of GRP78 and CHOP | IC50 [2]: < 5 nM | accumulation of polyubiquitinated proteins [3]: highly elevated levels of polyubiquitinated proteins | CHOP expression in tumor tissue [4]: larger fraction of CHOP-positive cells | IC50 [5]: ~10 nM | reduction of colony number [6]: ~50% | TUNEL staining of tumor tissue [7]: increased TUNEL staining | sensitivity of RPMI/8226 cells [8]: high sensitivity | IC50 [9]: ~10 nM | IC50 [10]: ~10 nM
